Where two headings read alike, the source gives them in different places.
Key:
Mia PaCa-2 cells = experiment: Colony formation assay
Experimental: Mia PaCa-2 cells were grown in DMEM high glucose, and supplemented with L-glutamine, 10% fetal bovine serum (FBS), and penicillin/streptomycin 1%.
250 to 1000 cells were plated in 60 mm dishes. Cells were incubated overnight. At twenty four hours cells were irradiated (3.5 Gy). Cyclopamine 2-10 μMol (Toronto Research Chemicals, TRC, supplier, Canada) was added to culture media, or combination of both. For chemotherapeutic agents, the drug was added to culture media at appropriate concentrations 24 hours after plating. Cultures were incubated for 10-14 days. […] Plating efficiency was normalized compared to control.

[1] = system: murine tumor allografts of medulloblastoma; details: mouse, in vivo; cited from earlier work
[2] = system: hedgehog expressing tumor cells; assay type: cell-based
Experimental: (§1) Cyclopamine 4 μmol was added to culture media of exponentially growing cells with or without chemotherapeutic agents and irradiated at 12 hours. Cells were trypsinized after 24, 48 or 72 hours. Annexin levels were measured (Annexin V: PE Apoptosis Detection Kit, BD Biosciences Pharningen™, San Jose, Calif.) for 0.5×10^6 freshly detached cells. The presence of membrane permeabilization was monitored by 7-AAD (7-Amino-actinomycinD) staining per manufacturer's protocol. Cells were subsequently analyzed by FACScan (BD FACSCanto™, BD Biosciences Immunocytometry Systems™, San Jose, Calif. with the use of CellQuest software (BD CellQuest™ Pro, BD Biosciences Immunocytometry Systems™, San Jose, Calif. The percentage of apoptotic cells was calculated by scoring for cells positive for either annexin alone (early apoptotic) or both annexin and 7-AAD (late apoptotic). All experiments were done in triplicate.

[3] = system: pancreatic cancer cell lines with over-activation of Hh pathway signaling; details: cited from earlier work
[4] = system: prostate cancer xenografts; details: high dose treatment; cited from earlier work
Mia PcCa-2 cells = experiment: Annexin V-PE apoptosis assay; assay type: cell-based, human; details: 24 hours
Experimental: as §1

HCT 116 cells = experiment: Colony formation assay; assay type: cell-based, human
Experimental: (§2) Cells were incubated overnight. […] Cultures were incubated for 10-14 days. […] Plating efficiency was normalized compared to control.

BxPC-3 cells = experiment: Colony formation assay; assay type: cell-based, human
Experimental: as §2

[5] = system: hedgehog expressing tumor cells; assay type: cell-based; remark: listed apart in the source
[6] = cyclopamine 4 μM and irradiation 3.5 Gy

Q: With `N.N.[Cl][Pt][Cl]` [Cisplatin] as the molecule, how does the “survival (colony formation)” value (Mia PaCa-2 cells; cisplatin 0.8 μM alone) read?
A: Its value is 35%.

Q: Which “survival (colony formation)” value (Mia PaCa-2 cells; gemcitabine 7.3 nM alone) does the source give for `Nc1ccn([C@@H]2O[C@H](CO)[C@@H](O)C2(F)F)c(=O)n1` [Gemcitabine] here?
A: Its value is 35%.

Q: For `CC1=C2C[C@H]3[C@@H](CC=C4C[C@@H](O)CC[C@@]43C)[C@@H]2CC[C@]12O[C@@H]1C[C@H](C)CN[C@H]1[C@H]2C` [cyclopamine], which “survival (colony formation)” value (Mia PaCa-2 cells; cyclopamine 4 μM alone) is on record?
A: Its value is 29%.

Q: What about the “survival (colony formation)” value (Mia PaCa-2 cells; [6]) of the same molecule?
A: The value was 4%.

Q: And the “survival (colony formation)” value (Mia PaCa-2 cells; cyclopamine 10 μM)?
A: The value was 7%.

Q: What about the “cytotoxic effect when combined with irradiation (in words)” value (Mia PaCa-2 cells; hedgehog expressing tumor cells) of the same molecule?
A: The value was “additive cytotoxic effect”.

Q: What about the “tumor response (in words)” value [1] of the same molecule?
A: Its value is “anti-tumor effects”.

Q: What about the “apoptosis of combination with radiation vs radiation alone (in words)” value ([2]; cyclopamine 4 μMol and radiation 3.5 Gy) of the same molecule?
A: The value was “not significantly different from radiation alone”.

Q: What about the “apoptotic cells (Annexin assay)” value ([2]; cyclopamine 4 μMol and radiation 3.5 Gy, 24 hours) of the same molecule?
A: Its value is 32.11%.

Q: And the “apoptotic cells (Annexin assay)” value ([2]; cyclopamine 4 μMol and radiation 3.5 Gy, 48 hours)?
A: Its value is 28.5%.

Q: And the “apoptotic cells (Annexin assay)” value ([2]; cyclopamine 4 μMol and radiation 3.5 Gy, 72 hours)?
A: The value was 32.3%.

Q: And the “apoptotic cells (Annexin assay)” value ([2]; cyclopamine 4 μMol, 24 hours)?
A: Its value is 18.15%.

Q: What about the “apoptotic cells (Annexin assay)” value ([2]; cyclopamine 4 μMol, 48 hours) of the same molecule?
A: Its value is 29.8%.

Q: What about the “apoptotic cells (Annexin assay)” value ([2]; cyclopamine 4 μMol, 72 hours) of the same molecule?
A: Its value is 32.9%.

Q: And the “apoptosis (in words)” value [3]?
A: Its value is “induced apoptosis”.

Q: And the “tumor response (in words)” value [4]?
A: The value was “complete regression”.

Q: What about the “apoptosis (AnnexinV staining)” value (Mia PcCa-2 cells; cyclopamine 4 μMol) of the same molecule?
A: Its value is 18.2%.

Q: And the “effect on survival following irradiation (in words)” value (HCT 116 cells; cells that do not express the hedgehog pathway)?
A: The value was “did not have a significant effect on survival”.

Q: And the “survival (colony formation)” value (HCT 116 cells; [6])?
A: Its value is 35%.

Q: What about the “survival (colony formation)” value (HCT 116 cells; cyclopamine 10 μM) of the same molecule?
A: Its value is 74%.

Q: And the “survival (colony formation)” value (HCT 116 cells; cyclopamine 4 μMol alone)?
A: The value was 92%.

Q: What about the “survival (colony formation)” value (BxPC-3 cells; [6]) of the same molecule?
A: The value was 7%.

Q: What about the “survival (colony formation)” value (BxPC-3 cells; cyclopamine 10 μM) of the same molecule?
A: The value was 11%.

Q: And the “survival (colony formation)” value (BxPC-3 cells; cyclopamine 4 μMol alone)?
A: Its value is 33%.

Q: Which “apoptosis of combination with radiation vs radiation alone (in words)” value ([5]; jervine 4 μMol and radiation 3.5 Gy) does the source give for `CC1=C2C(=O)C3C(CC=C4CC(O)CCC43C)C2CCC12OC1CC(C)CNC1C2C` (centres unmarked) [jervine] here?
A: Its value is “differ little from radiation alone”.

Q: And the “apoptosis (Annexin V assay, in words)” value ([5]; jervine 4 μMol, 24, 48 or 72 hours)?
A: Its value is “induces apoptosis in an increasing percentage of cells in a time-dependent manner”.

Q: And the “cytotoxic effect when combined with irradiation (in words)” value ([5]; jervine, hedgehog expressing tumor cells)?
A: Its value is “additive cytotoxic effect”.

Q: For `CC(=O)O[C@H]1C(=O)[C@@]2(C)[C@H]([C@H](OC(=O)c3ccccc3)[C@]3(O)C[C@H](OC(=O)[C@H](O)[C@@H](NC(=O)c4ccccc4)c4ccccc4)C(C)=C1C3(C)C)[C@]1(OC(C)=O)CO[C@@H]1C[C@@H]2O` [taxol, Paclitaxel], which “survival (colony formation)” value (Mia PaCa-2 cells; taxol 3.5 nM alone) is on record?
A: Its value is 91%.

Q: And the “apoptosis (AnnexinV staining)” value (Mia PcCa-2 cells; taxol 1.7 nM)?
A: Its value is 64.9%.
